Reference: paper PMC13516501 (Pharmaceuticals, 2026)

Assay: Single-dose, randomized, two-way crossover bioequivalence/pharmacokinetic studies A-D under fed conditions (plasma LC-MS/MS, NCA)
Settings: reference formulation, Study C, metformin 850 mg, empagliflozin […] mg, n 35
Procedure: To ensure standardization, all subjects underwent at least 10 h of overnight pre-dose fasting on the study day. Participants then received a standardized high-fat, high-calorie breakfast (approximately 800 kcal). Dosing was administered 30 min after the start of this meal, followed by the intake of a 10% glucose solution (250 mL). The glucose solution was administered as a prophylactic measure to reduce the risk of hypoglycemia. It was not intended to simulate fed-state caloric intake beyond the standardized meal, in accordance with institutional clinical practice.
Each study period included a one-day treatment followed by a 14-day washout period. […] All adverse events, including duration, severity, causality, and outcomes, were strictly monitored and recorded by the principal investigator and medical staff throughout the study.
Promptly after collection, the samples were centrifuged at 3500 rpm for 10 min at 4 °C to separate the plasma. The harvested plasma was then transferred into appropriately labeled cryovials and immediately cryopreserved at −70 ± 15 °C until bioanalytical quantification. […]
The primary pharmacokinetic parameters evaluated to establish bioequivalence were the maximum observed plasma concentration (Cmax) and the area under the concentration–time curve from time zero to the last measurable concentration (AUC0-t). […]

CN(C)C(=N)N=C(N)N [Metformin]
AUC0-t (mean): 13,288.1 ng⋅h/mL
